Measured values from patent publication US7713972B2, “Imidazotriazinone derivatives as PDE 7 (phosphodiesterase 7) inhibitors” (Asubio Pharma Co., Ltd., priority 2003, dated 2010).

molecular target: T1, PDE 7 (phosphodiesterase VII) (Homo sapiens, UniProt Q13946); experiment: PDE 7 inhibiting effect (Biological Test 1; 3H-cAMP hydrolysis by PDE 7 active fraction from MOLT-4 cells); format: biochemical; settings: PDE 7 fraction from MOLT-4 cells; 0.064 μM cAMP, 10 μM rolipram present, 2 hours at 25° C.; read-out: PDE 7 inhibiting activities, IC50
T1 construct: endogenous in cells; host or cells: MOLT-4 (ATCC CRL-1582), soluble fraction, HiTrap Q column, fraction eluting at about 350 mM NaCl
Protocol: The PDE 7 (phosphodiesterase VII) inhibiting effect of the compounds of the present invention was performed by the following method, which was modified assay method described in Biochemical. Pharmacol. 48(6), 1219-1223 (1994).
(1) The active fraction of PDE 7 (phosphodiesterase VII) was obtained. That is, MOLT-4 (obtainable from ATCC as ATCC No. CRL-1582), which was cell line of human acute lymphoblastic lymphoma T cells, was incubated in RPMI1640 culture medium containing 10% fetal bovine serum to obtain 5×10^8 MOLT-4 cells. The cells were collected by centrifugation and suspended with 10 mL of buffer solution A [25 mM of tris-HCl, 5 mM of 2-mercaptoethnol, 2 mM of benzamidine, 2 mM of EDTA, 0.1 mM of 4-(2-aminoethyl) benzensulfonyl hydrochloride; pH 7.5], then homogenized by Polytron® homogenizer. The homogenate were centrifuged under 25,000×G for 10 minutes at 4° C. The supernatant was separated and thus obtained supernatant was further centrifuged under 100,000×G for 60 minutes at 4° C., and then filtrated with 0.2 μm filter to obtain the soluble fraction. (2) The obtained soluble fraction was filled in equilibrium HiTrap Q column (5 mL×2) with buffer solution A, and phosphodiesterase fractions were eluted by 300 mL of buffer solution A with linear gradient from 0 to 0.8 M NaCl concentration. 5 ml each of 60 eluents were collected, and each eluents were examined for cyclic AMP metabolic activities of phosphodiesterase. The fraction eluting with about 350 mM NaCl concentration parts, where metabolic activities were not inactivated by 10 μM of rolipram (selective inhibitor for phosphodiesterase IV) and 10 μM of milrinone (selective inhibitor for phosphodiesterase III), were collected as storage solution for using to test PDE 7 inhibiting effect. […] Further, SEPHADEX®-QAE (cross-linked dextran gel) was added to the obtained supernatant and the mixture was leaved at rest for 5 minutes, then, the radioactivity of the solution was measured. […]

T1 sequence (Q13946 whole entry): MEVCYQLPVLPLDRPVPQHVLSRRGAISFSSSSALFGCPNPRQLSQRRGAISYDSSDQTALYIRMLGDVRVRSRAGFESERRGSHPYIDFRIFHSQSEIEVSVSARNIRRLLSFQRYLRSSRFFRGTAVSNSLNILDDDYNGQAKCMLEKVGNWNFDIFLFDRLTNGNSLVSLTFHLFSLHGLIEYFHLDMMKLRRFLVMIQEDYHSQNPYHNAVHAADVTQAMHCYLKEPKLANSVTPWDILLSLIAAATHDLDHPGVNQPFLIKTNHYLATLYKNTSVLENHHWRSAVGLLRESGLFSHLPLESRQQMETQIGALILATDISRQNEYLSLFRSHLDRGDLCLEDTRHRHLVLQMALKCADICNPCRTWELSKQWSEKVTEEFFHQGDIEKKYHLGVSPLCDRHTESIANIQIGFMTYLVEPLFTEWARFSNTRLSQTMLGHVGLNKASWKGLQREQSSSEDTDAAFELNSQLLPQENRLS

| SMILES | IC50 [nM] |
| --- | --- |
| COc1ccccc1-c1nc2c(C)nc(C3CCCCC3)n2c(=O)[nH]1 [Compound 8, 6-Cyclohexyl-2-(2-methoxyphenyl)-8-methylimidazo[1,5-a][1,3,5]-triazin-4(3H)-one] | 340 |
| COc1cc(N2CCN(C)CC2)ccc1-c1nc2c(C)nc(C3CCCCC3)n2c(=O)[nH]1 [Compound 11, 6-Cyclohexyl-2-[2-methoxy-4-(4-methyl-1-piperadinyl)phenyl]-8-methylimidazo[1,5-a][1,3,5]triazin-4(3H)-one] | 55 |
| COc1ccccc1-c1nn2c(C)nc(C3CCCCC3)c2c(=O)[nH]1 [Compound 12, 5-Cyclohexyl-2-(2-methoxyphenyl)-7-methylimidazo-[5,1-f][1,2,4]triazin-4(3H)-one] | 490 |
